Results taken from patent US20240301409A1, “Chemically Modified Small Activating RNA” (RACTIGEN THERAPEUTICS, priority 2021, published 2024).
Oligonucleotides are written 5' to 3', each unit as a sugar letter and its base; * is a phosphorothioate linkage, no mark a phosphodiester; rarer units and linkages stand in square brackets, end groups in braces. Plain capitals give the bases only. m = 2'-O-methyl; r = 2'-OH (RNA); f = 2'-fluoro

Legend:
[1] = system: TNF-α; assay: PBMC cytokine release assay, TNF-α (ELISA); type: cell-based, human; settings: 10 nM, 24 hours
Description: Data represent mean±SD of two independent experiments. […] The values below the line indicate suppressed activities.
Each treatment group was analyzed in triplicate.

[2] = system: Rag1-40 target sequence in the 3′ UTR of firefly luciferase, COS-1 cells; assay: Analysis of off-target effects (pOff-Target dual luciferase reporter in COS-1 cells); settings: lysed 48 hours after transfection, luciferase activity
Description: A 26 bp fragment comprising the target site of Rag1-40 was cloned in the antisense orientation into the 3′ UTR region of the firefly luciferase gene in a pmirGLO dual luciferase vector. Vector plasmids were co-transfected with the indicated saRNAs into COS-1 cells. Cells were lysed 48 hours after transfection, and the resulting lysates were assessed for luciferase activity. Data represent mean±SD of at least two independent experiments. Dashed line represents comparisons to blank control (top dashed line) and Rag1-40 (bottom dashed line). Values close to the top dashed line indicate no off-target effect.
A 26 bp fragment comprising the Rag1-40 target sequence was cloned in the antisense orientation into a multiple cloning site (MCS) of the 3′ untranslated region of firefly luciferase of the pmirGLO dual luciferase vector (Promega, Fitchburg, WI), to obtain pOff-Target plasmid. Following E. coli transformation and overnight incubation, plasmids for each construct were prepared by standard method. Each plasmid was transfected into COS-1 monkey kidney epithelial cells using Lipofectamine 3000 (Invitrogen, Carlsbad, CA). Subsequently, saRNA was transfected using RNAiMAX. After 24 hours of incubation, COS-1 cells were lysed with 1× lysis buffer, and luciferase activity was measured using dual luciferase reporter gene assay system (Promega, WI, USA) following manufacturer's instructions.
To assess the off-target effects of unmodified and modified saRNAs, a sequence complementary to the sense oligonucleotide strand of Rag1-40 was cloned into the 3′UTR region of the luciferase gene in a pmirGLO dual luciferase vector. The vector plasmid was co-transfected with the saRNA into COS-1 cells. Cells were lysed 48 hours after transfection and the resulting lysates were assessed for luciferase activity.

[3] = target: T1, RNase A (Bos taurus, UniProt P61823); assay: saRNA stability analysis in the presence of RNase A (agarose gel); settings: incubation 0 to 96 hours
T1 sequence (P61823 27-150): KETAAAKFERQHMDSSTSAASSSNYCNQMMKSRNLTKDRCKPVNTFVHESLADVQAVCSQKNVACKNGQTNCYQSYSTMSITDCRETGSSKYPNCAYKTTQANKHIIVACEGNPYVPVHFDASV

[4] = Stability of RNA duplex in human urine (agarose gel); settings: 37° C.
Description: Double-stranded RNA (7.5 μL, 10 μM) diluted in 17.5 μL PBS was incubated with 25 μL human fresh urine at 37° C. for 0, 1, 24 and 48 hours, respectively. The duplexes obtained at each time point indicated above were each added to 1 μL of 10× loading buffer, and then frozen in liquid nitrogen. After incubation, all samples were detected for the double-stranded RNA by 4% agarose gel electrophoresis, and the content of each duplex was analyzed by Image J software.
To further test the stability of the chemically modified double-stranded saRNA in human urine, the duplexes were incubated in urine for different durations ranging from 0 to 48 hours.

[5] = system: INF-α; assay: PBMC cytokine release assay, INF-α (ELISA); settings: PBMC, 10 nM, 24 hours
Description: Cells were treated with the indicated duplexes at a final concentration of 10 nM or lipopolysaccharide (LPS) as a positive control for 24 hours, respectively. The levels of INF-α and TNF-α in the cell supernatant were detected by ELISA kit. […] Data represent mean±SD of two independent experiments.
Human peripheral blood mononuclear cells (Allcells, Alameda, CA) were seeded in a 96-well microplate at a density of approximately 10×10^4 cells/well. Transfection of dsRNA was performed using RNAiMAX (Invitrogen, Carlsbad, CA) following manufacturer's instructions. Supernatants were collected 24 hours after transfection and immediately assayed for IFN-α and TNF-α production using ELISA kit (R&D Systems). Each treatment group was analyzed in triplicate.
To assess the immunostimulatory effect of chemically modified saRNAs, human peripheral blood mononuclear cells (PBMC) from healthy donors were incubated with the double-stranded saRNAs, and INF-α and TNF-α levels in the supernatant of treated cells after 24 hours were measured.

Substance	immunostimulatory effect (TNF-α induction) compared with Rag1-40, in words [1]	off-target effect compared to unmodified Rag1-40, in words [2]	degradation of duplex at 96 hours [3]	degradation of duplex at 48 hours [4]	immunostimulatory activity (INF-α) compared with Rag1-40, in words [5]
Rag1-40-3: saRNA duplex: sense mCmCAACUCAUUCUCCAAGmUmC (SEQ ID NO 5); antisense fUmAfCfUfUmGmGmAmGmAmAfUmGmAmGfUfUmGmGfCmA (SEQ ID NO 8) (sense mCmCrArArCrUrCrArUrUrCrUrCrCrArArGmUmC)	unchanged immunostimulatory activity	completely inhibited	little or no signs of degradation	–	–
Rag1-40-17: saRNA duplex: sense mCmCAACUCAUUCUCCAAG*U*C (SEQ ID NO 15); antisense fUAfCfUfUGGAGAAfUGAGfUfUGGfCA (SEQ ID NO 6) (sense CCAACUCAUUCUCCAAGUC; antisense UACUUGGAGAAUGAGUUGGCA; 2'-OMe, 2'-F, phosphorothioates; modified_base (1)..(2) (1,2)=2′-O-methyl(2′-OMe); modified_base (17)..(19) (17,18,19)=phosphorothioate (PS) backbone modification; modified_base (1)..(20) (1,3,4,5,12,16,17,20)=2′-fluoro)	–	mitigated or similar off-target effects	little or no signs of degradation	no sign of degradation	–
Rag1-40-25: saRNA duplex: sense fCfCAACUCAUUCUCCAAG*U*C (SEQ ID NO 16); antisense fUAfCfUfUGGAGAAfUGAGfUfUGGfCA (SEQ ID NO 6) (sense CCAACUCAUUCUCCAAGUC; antisense UACUUGGAGAAUGAGUUGGCA; 2'-F, phosphorothioates; modified_base (1)..(2) (1,2)=2′-fluoro; modified_base (17)..(19) (17,18,19)=phosphorothioate (PS) backbone modification; modified_base (1)..(20) (1,3,4,5,12,16,17,20)=2′-fluoro)	–	mitigated or similar off-target effects	little or no signs of degradation	no sign of degradation	–
Rag1-40-29: saRNA duplex: sense fCfCAACUCAUUCUCCAAG*U*C (SEQ ID NO 16); antisense UACUfUGGAGAAfUGAGUfUGG*fC*A (SEQ ID NO 10) (sense CCAACUCAUUCUCCAAGUC; antisense UACUUGGAGAAUGAGUUGGCA; 2'-F, phosphorothioates; modified_base (1)..(2) (1,2)=2′-fluoro; modified_base (17)..(19) (17,18,19)=phosphorothioate (PS) backbone modification; modified_base (5)..(20) (5,12,17,20)=2′-fluoro; modified_base (19)..(21) (19,20,21)=phosphorothioate (PS) backbone modification)	–	mitigated or similar off-target effects	–	mostly degraded	reduced immunostimulatory activity
